Data on six molecules can be found in publication PMC10238102, “Anti-SARS-CoV-2 Activity of Adamantanes In Vitro and in Animal Models of Infection” (COVID, 2022).

Series [1] relates to icSARS-CoV-2-mNG. In words: microbe, parasite or virus in culture. The series is classed as cell-based, SARS-CoV-2.
The subject of series [2] is SARS-CoV-2 WA/01. Kind of series: SARS-CoV-2 WA/01 immunostaining assay in ACE2-A549 cells. The series is classed as cell-based. As to conditions: MOI 0.1, anti-spike staining, 3 DPI (Figure 2A).
The test system of series [3] is ACE2-A549 cells. Kind of series: CellTiter-Glo cell viability assay in ACE2-A549 cells. A general note: In ATP-based viability assays light output follows the ATP content of the culture.
The subject of series [4] is icSARS-CoV-2-mNG. Kind of series: microbe, parasite or virus in culture. The format is cell-based, SARS-CoV-2. As to conditions: Severe acute respiratory syndrome coronavirus 2, read-out: IC50 (virus titer by plaque assay).
For series [5], the system named is Influenza A/Hong Kong/8/68 (H3N2). In words: microbe, parasite or virus in culture. The format is cell-based.
Series [6] can be described thus: Cell viability (CC50) in Vero E6-TMPRSS2-T2A-ACE2 cells. The series is classed as cell-based. The settings on record: African green monkey, Vero E6 T/A cells, Figure 3.
The test system of series [7] is SARS-CoV-2 WA/01. Kind of series: SARS-CoV-2 WA/01 antiviral assay in Vero E6 cells. The format is cell-based. The settings on record: Severe acute respiratory syndrome coronavirus 2, Vero C1008, strain WA/01.
The test system of series [8] is SARS-CoV-2 WA/01. Kind of series: Golden Syrian hamster infection model, lung virus titer by plaque assay. The format is in vivo, golden Syrian hamsters. As to conditions: 60 mg/kg i.p. every 12 h from 24 h before infection, 4 DPI. As for the experimental part:
The golden Syrian hamster experiment was performed by Dr. Anthony Griffith’s team at the Boston University School of Medicine. Adult hamsters (3 males and 3 females per group) were administered with antiviral compounds i.p. starting 24 h prior to infection until completion of the study. Hamsters were infected with SARS-CoV-2 WA/01 i.n. (4 × 10^4 PFU in 100 μL). At 4 DPI, hamsters underwent euthanasia and their lungs were collected to perform plaque assays to measure virus titer in the tissues. Lung tissue from each hamster was stored at −80 °C prior to titer. Tissues were removed from −80 °C and thawed at 4 °C before being weighed and cut to a weight ≤100 mg. Each tissue sample was then homogenized using a TissueLyser II (Qiagen, Germantown, MD, USA) in a final volume of 1 mL using DMEM/2% FBS/antibiotic-antimycotic (Gibco™). Each tissue homogenate was then diluted and 200 μL of each dilution or control was added to confluent monolayers of Vero E6 cells in duplicate and incubated for 1 h at 37 °C and 5% CO2. The plates were gently rocked every 5–10 min to prevent monolayer drying. […]

Series [9] has as its system SARS-CoV-2. In words: Summary of in vitro assays in human lung epithelial cells expressing ACE2. The format is cell-based. As to conditions: Severe acute respiratory syndrome coronavirus 2, Epithelial cell, read-out: IC50 values (summary range).
Series [10] has as its system SARS-CoV-2. The settings on record: obtained by Zhou et al.; cited from earlier work.
A further series relates to SARS-CoV-2 protein E. Also on record: method as in PMID 34893762. As to conditions: expressed in X. laevis oocytes; cited from earlier work.
The subject of the next series is SARS-CoV-2 ORF10. Details: method as in PMID 34893762. The settings on record: expressed in X. laevis oocytes; cited from earlier work.
A short description of the next series: in vitro. The settings on record: human.
The conditions of series [11]: cited from earlier work.
For series [12] the following is noted: cited from earlier work. This is another data set of the same source.
A short description of series [13]: CellTiter-Glo cell viability assay in ACE2-A549 cells. As to conditions: human.
Series [14] is described as follows: Body weight and deaths of treated, infected BALB/c mice. The settings on record: 60 mg/kg i.n. every 12 h, n = 6 mice per group.
Series [15] has as its system ACE2-A549 cells. The settings on record: human.
Where [16] appears, read: Severe acute respiratory syndrome coronavirus 2.
The mark [17] stands for this setting: Severe acute respiratory syndrome coronavirus 2, ACE2-A549 cells.

Each structure is given as a SMILES string. “Also recorded” adds a separate entry of the source. Read-outs that look alike come from different tables or passages of the source.

As to `O=c1nc(NO)ccn1[C@@H]1O[C@H](CO)[C@@H](O)[C@H]1O` [EIDD-1931], the IC50 (usually the concentration needed to halve the response being measured) is 1.5 µM in the series with icSARS-CoV-2-mNG [1] (read-out: IC50) and 0.36 µM in the series on SARS-CoV-2 WA/01 [2] (ACE2-A549 cells, read-out: IC50). Besides, the CC50 with ACE2-A549 cells [3] (Figure 1A) is 130 µM; in the series with ACE2-A549 cells [3] (Figure 2A) it was 100 µM.

`NC12CC3CC(CC(C3)C1)C2` [amantadine]: the half-maximal inhibitory concentration (IC50) is 120 µM in the series with icSARS-CoV-2-mNG [1]; 120 µM in the series on icSARS-CoV-2-mNG [1] (setting [16]); 34.6 µM in the series on icSARS-CoV-2-mNG [4]; 136 µM in the series with SARS-CoV-2 WA/01 [2] (setting [17]); 0.46 µM in series [5]; 413 µM with SARS-CoV-2 WA/01 [7]. Moreover, the values for the IC50 in the series on SARS-CoV-2 [9] and in the series with SARS-CoV-2 [10] were 120 to 130 µM and 116 µM, respectively. Further, the CC50 at 48 h in [6] was ≥ 1000 µM. Further, the “lung virus titer vs no-drug control” value in the series on SARS-CoV-2 WA/01 [8] was “did not significantly inhibit”. Also, in the series with SARS-CoV-2 protein E, the “channel activity of protein E” value is reported as “decreased channel activities”. Moreover, the “channel activity of ORF10” value with SARS-CoV-2 ORF10 is on record as “decreased channel activities”. Further, in “in vitro”, the CC50 was ≥ 1000 µM. In addition, the Cmax (in general, the peak of the concentration-time curve) is 47 µM in [11] (read-out: Cmax plasma level, mice, single-dose i.p. injection of 60 mg/kg) and 4.16 µM in series [12] (multiple dose, 258 mg extended-release tablet once daily). The “ratio of nasal mucus to plasma concentration, compared with rimantadine” value in series [12] (after single 200-mg doses) is on record as “about two-fold higher”. For the same molecule, in [12] (autopsy lung tissue from an infant), the “concentration in autopsy lung tissue relative to serum concentration” value is given as 14 times.

For the molecule `NC(N)=NC(=O)c1nc(Cl)c(N2CCCCCC2)nc1N` [hexamethylene-amiloride], the “channel activity of protein E” value in the series with SARS-CoV-2 protein E is reported as “decreased channel activities”. Further, in the series on SARS-CoV-2 ORF10, the “channel activity of ORF10” value is “decreased channel activities”.

`CCC(CC)COC(=O)[C@H](C)N[P@](=O)(OC[C@H]1O[C@@](C#N)(c2ccc3c(N)ncnn23)[C@H](O)[C@@H]1O)Oc1ccccc1` [remdesivir]: the IC50 was 0.08 µM in the series on icSARS-CoV-2-mNG [1] (setting [16]) and 0.04 µM in the series on SARS-CoV-2 WA/01 [2] (setting [17]). Also, the CC50 at 48 h in series [6] is ≥ 10 µM. Also, the CC50 in series [13] was ≥ 3 µM.

Take `CC(N)C12CC3CC(CC(C3)C1)C2` (centres unmarked) [rimantadine]: the IC50 with icSARS-CoV-2-mNG [1] is 29.8 µM; in the series on icSARS-CoV-2-mNG [1] (setting [16]), 30 µM; with icSARS-CoV-2-mNG [4], 12.6 µM; with SARS-CoV-2 WA/01 [2] (setting [17]), 34 µM; in [5] it was 0.05 µM; in the series with SARS-CoV-2 WA/01 [7], 121 µM. In addition, the IC50 in the series with SARS-CoV-2 [9] is 30 to 40 µM; in the series with SARS-CoV-2 [10] it was 36 µM. Further, the CC50 at 48 h in series [6] is ≥ 300 µM. Further, the “lung virus titer vs no-drug control” value in the series with SARS-CoV-2 WA/01 [8] is recorded as “modestly but significantly inhibited; also recorded: mild but significant antiviral effect”. Moreover, the “channel activity of protein E” value with SARS-CoV-2 protein E is “not reported to be inhibited”. Moreover, the CC50 in the series “in vitro” was ≥ 300 µM. Besides, the Cmax in [11] (mouse, in vivo, po, 40 mg/kg) is 9.3 µM; in series [12] (in vivo, 100 mg), 0.54 to 2.17 µM. Besides, the “mice found dead within 1 DPI” value in [14] is on record as “Two”.

In the case of `CN(C)CCOCC(=O)NC12CC3CC(CC(C3)C1)C2` [tromantadine], the concentration for half-maximal inhibition (IC50) in the series with icSARS-CoV-2-mNG [1] is 97.6 µM; in the series with icSARS-CoV-2-mNG [1] (setting [16]), 98 µM; in the series on icSARS-CoV-2-mNG [4] it was 88.9 µM; with SARS-CoV-2 WA/01 [2] (setting [17]), 56 µM; in series [5], 94.2 µM; in the series with SARS-CoV-2 [9], 60 to 100 µM. The figures for the CC50 in the series with ACE2-A549 cells [15] and in “in vitro” were 305 µM and 312 µM, respectively.
